According to US11472778B2, “Hepatitis C virus NS3/4A protease inhibitors” (priority 2017, dated 2022):
Where two headings read alike, the source gives them in different places.

Legend:
[1] = test system: HCV replicon R155K variant in Huh7 cells; assay: microbe, parasite or virus in culture; format: cell-based, Hepatitis C virus; conditions: for EC50: Hepatitis C virus; for Replicon EC50 (Fold change) R155K: Table 4, relative to WT replicon
Procedure: (§1) Mutations (R155K, A516T, D168A and D168V) were constructed by site-directed mutagenesis using a Con1 (genotype 1b) luciferase reporter replicon containing the H77 (genotype 1a) NS3 sequence.
(§2) Replicon RNA of each protease variant was introduced into Huh7 cells by electroporation. Replication was then assessed in the presence of increasing concentrations of protease inhibitors by measuring luciferase activity (relative light units) 96 h after electroporation.
(§3) Mutations (R155K, D168A and A156T) were constructed by site-directed mutagenesis using a Con1 (genotype 1b) luciferase reporter replicon containing the H77 (genotype 1a) NS3 sequence.^6 Replicon RNA of each protease variant was introduced into Huh7 cells by electroporation. Replication was then assessed in the presence of increasing concentrations of protease inhibitors by measuring luciferase activity (relative light units) 96 h after electroporation.

[2] = test system: HCV replicon A156T variant in Huh7 cells; assay: microbe, parasite or virus in culture; format: cell-based, Hepatitis C virus; conditions: for Replicon EC50 (Fold change) A156T: Table 4, relative to WT replicon
Procedure: as §1, §2, §3

[3] = test system: HCV replicon D168A variant in Huh7 cells; assay: microbe, parasite or virus in culture; format: cell-based, Hepatitis C virus; conditions: for EC50: Hepatitis C virus; for Replicon EC50 (Fold change) D168A: Table 4, relative to WT replicon
Procedure: as §1, §2, §3

[4] = test system: wild-type HCV replicon in Huh7 cells; assay: Cell-based drug susceptibility (replicon) assay, wild-type; conditions: Hepatitis C virus, read-out: Replicon EC50 (nM) WT
Procedure: as §1, §2, §3

[5] = test system: HCV replicon D168V variant in Huh7 cells; assay: microbe, parasite or virus in culture; format: cell-based, Hepatitis C virus; conditions: for EC50: Hepatitis C virus; for Replicon EC50 (Fold change) D168V: Table 4, relative to WT replicon
Procedure: as §1
Replicon RNA of each protease variant was introduced into Huh7 cells by electroporation. Replication was then assessed in the presence of increasing concentrations of protease inhibitors by measuring luciferase activity (relative light units) 96 h after electroporation. […]

[6] = molecular target: T1, GT1a D168A NS3/4A protease (UniProt P27958, C1185S/D1194A, species not given); format: biochemical, Hepatitis C virus; conditions: read-out: Ki (nM) GT1a D168A NS3/4A Protease
T1 construct: Ki (nM) GT1a D168A NS3/4A Protease
Procedure: (§4) For each assay, 2 nM of NS3/4A protease (GT1, D168A and GT3) was pre-incubated at room temperature for 1 h with increasing concentration of inhibitors in assay buffer [50 mM Tris, 5% glycerol, 10 mM DTT, 0.6 mM LDAO, and 4% dimethyl sulfoxide]. Inhibition assays were performed in nonbinding surface 96-well black half-area plates (Corning) in a reaction volume of 60 μt. […] Three independent data sets were collected for each inhibitor with each protease construct.
as §4, with “(GT1a” for “(GT1, D168A”, “D168A)” for “GT3)”, “(50” for “[50”, “sulfoxide, pH 7.5).” for “sulfoxide].”, “non-binding” for “nonbinding”, “μL.” for “μt.”
(§5) For each assay, 2 nM of NS3/4A protease (GT1a, R155K and D168A) was pre-incubated at room temperature for 1 h with increasing concentration of inhibitors in assay buffer (50 mM Tris, 5% glycerol, 10 mM DTT, 0.6 mM LDAO, and 4% dimethyl sulfoxide, pH 7.5). Inhibition assays were performed in non-binding surface 96-well black half-area plates (Corning) in a reaction volume of 60 μL. […] Three independent data sets were collected for each inhibitor with each protease construct. […] Gibbs free energy of binding was calculated using the following equation: ΔG=RTlnKi

[7] = molecular target: GT1a D168A NS3/4A protease; format: biochemical, Hepatitis C virus; conditions: Table 3; Ki D168A relative to GT1a WT
Procedure: as §4
(§6) For each assay, 2 nM of NS3/4A protease (GT1a and D168A) was pre-incubated at room temperature for 1 h with increasing concentration of inhibitors in assay buffer (50 mM Tris, 5% glycerol, 10 mM DTT, 0.6 mM LDAO, and 4% dimethyl sulfoxide, pH 7.5). Inhibition assays were performed in non-binding surface 96-well black half-area plates (Corning) in a reaction volume of 60 μL. […] Three independent data sets were collected for each inhibitor with each protease construct.
as §5

[8] = molecular target: T2, wild-type GT1a NS3/4A protease (UniProt P27958, C1185S, species not given); format: biochemical, Hepatitis C virus; conditions: read-out: Ki (nM) GT1a WT NS3/4A Protease
T2 construct: Ki (nM) GT1a WT NS3/4A Protease
Procedure: as §4, §6, §5

[9] = Huh-7, read-out: Replicon EC50 (nM) R155K, Table 4
[10] = Huh-7, read-out: Replicon EC50 (nM) D168A, Table 4
[11] = Huh-7, read-out: Replicon EC50 (nM) D168V, Table 4
[12] = Huh-7, 96 h, read-out: Replicon EC50 (nM) R155K, Table 2, Huh7 cells, luciferase 96 h
[13] = Hepatitis C virus, Huh-7, 96 h, read-out: Replicon EC50 (nM) A156T, Table 2, Huh7 cells, luciferase 96 h
[14] = Hepatitis C virus, Huh-7, read-out: Replicon EC50 (nM) A156T, Table 4
[15] = Huh-7, 96 h, read-out: Replicon EC50 (nM) D168A, Table 2, Huh7 cells, luciferase 96 h
[16] = Huh-7, 96 h, Table 2, Huh7 cells, luciferase 96 h
[17] = Huh-7, 96 h, read-out: Replicon EC50 (nM) D168V, Table 2, Huh7 cells, luciferase 96 h

| Structure (SMILES) | EC50 [1, 9] [nM] | EC50 [3, 10] [nM] | EC50 ([4]; Huh-7, Table 4) [nM] | EC50 [5, 11] [nM] | EC50 [1, 12] [nM] | Replicon EC50 (Fold change) R155K [1] | EC50 [2, 13] [nM] | EC50 [2, 14] [nM] | Replicon EC50 (Fold change) A156T [2] | EC50 [3, 15] [nM] | Replicon EC50 (Fold change) D168A [3] | Ki ([6]; Table 1) [nM] | Ki ([6]; Table 3) [nM] | Ki (Fold change) GT1a D168A NS3/4A Protease [7] | Ki ([8]; Table 1) [nM] | Ki ([8]; Table 3) [nM] | EC50 [4, 16] [nM] | EC50 [5, 17] [nM] | Replicon EC50 (Fold change) D168V [5] | also measured |
| --- | --- | --- | --- | --- | --- | --- | --- | --- | --- | --- | --- | --- | --- | --- | --- | --- | --- | --- | --- | --- |
| C=C[C@@H]1C[C@]1(NC(=O)[C@@H]1C[C@@H]2CN1C(=O)[C@H](C(C)(C)C)NC(=O)O[C@@H]1C[C@H]1CCCCCc1nc3ccc(OC)cc3nc1O2)C(=O)NS(=O)(=O)C1CC1 [Compound 1, grazoprevir, reference compound] | 1.89 | 9.69 | 0.14 | 5.41 | – | – | – | – | – | – | – | – | – | – | – | – | – | – | – | EC50 ([1]; Huh-7, read-out: Replicon EC50 (nM) R155K, Table 9): 1.9 nM; EC50 ([2]; Hepatitis C virus, Huh-7, read-out: Replicon EC50 (nM) A156T, Table 9): 200 nM; EC50 ([2]; read-out: Replicon EC50 (nM) A156T, Table 2, Huh7 cells, luciferase 96 h): 238 nM; EC50 ([3]; Huh-7, read-out: Replicon EC50 (nM) D168A, Table 9): 11 nM; EC50 ([4]; Huh-7, Table 9): 0.12 nM; EC50 ([5]; Huh-7, read-out: Replicon EC50 (nM) D168V, Table 9): 5.3 nM |
| COc1ccc2nc(C(C)C)c(O[C@@H]3C[C@H]4C(=O)N[C@]5(C(=O)NS(=O)(=O)C6(C)CC6)C[C@H]5/C=C\CCCCC[C@H](NC(=O)OC5CCCC5)C(=O)N4C3)nc2c1 [Compound 23e, Cyclopentyl ((2R,6S,13aS,14aR,16aS,Z)-2-((3-isopropyl-7-methoxyquinoxalin-2-yl)oxy)-14a-(((1-methylcyclopropyl)sulfonyl)carbamoyl)-5,16-dioxo-1,2,3,5,6,7,8,9,10,11,13a,14,14a,15,16,16a-hexadecahydrocyclopropa[e]pyrrolo[1,2-a][1,4]diazacyclopentadecin-6-yl)carbamate] | 6.83 | 7.91 | 0.59 | 18.2 | 6.83 | (12) fold | 27.6 | 27.6 | (47) fold | 7.91 | (13) fold | 156 | 156 ± 17 | (116) fold | 1.34 | 1.34 | 0.59 | 18.2 | (31) fold | – |
| COc1ccc2nc(C(C)C)c(O[C@@H]3C[C@H]4C(=O)N[C@]5(C(=O)NS(=O)(=O)C6CC6)C[C@H]5/C=C\CCCCC[C@H](NC(=O)OC5CCCC5)C(=O)N4C3)nc2c1 [Compound 22e, Cyclopentyl ((2R,6S,13aS,14aR,16aS,Z)-14a-((cyclopropylsulfonyl)carbamoyl)-2-((3-isopropyl-7-methoxyquinoxalin-2-yl)oxy)-5,16-dioxo-1,2,3,5,6,7,8,9,10,11,13a,14,14a,15,16,16a-hexadecahydrocyclopropa[e]pyrrolo[1,2-a][1,4]diazacyclopentadecin-6-yl)carbamate] | 7.63 | 7.96 | 0.48 | 30.1 | 7.63 | (16) fold | 32.1 | 32.1 | (67) fold | 7.96 | (17) fold | 161 | 161 ± 11 | (112) fold | 1.44 | 1.44 | 0.48 | 30.1 | (63) fold | – |
| CCc1nc2ccccc2nc1O[C@@H]1C[C@H]2C(=O)N[C@]3(C(=O)NS(=O)(=O)C4CC4)C[C@H]3/C=C\CCCCC[C@H](NC(=O)OC3CCCC3)C(=O)N2C1 [Compound 22g, Cyclopentyl ((2R,6S,13aS,14aR,16aS,Z)-14a-((cyclopropylsulfonyl)carbamoyl)-2-((3-ethylquinoxalin-2-yl)oxy)-5,16-dioxo-1,2,3,5,6,7,8,9,10,11,13a,14,14a,15,16,16a-hexadecahydrocyclopropa[e]pyrrolo[1,2-a][1,4]diazacyclopentadecin-6-yl)carbamate] | 4.28 | 7.5 | 0.24 | 19.3 | 4.28 | (18) fold | 24.6 | 24.6 | (103) fold | 7.5 | (31) fold | 107 | 107 ± 7 | (54) fold | 1.99 | 1.99 | 0.24 | 19.3 | (80) fold | – |
| COc1ccc2nc(C(C)C)c(O[C@@H]3C[C@H]4C(=O)N[C@]5(C(=O)NS(=O)(=O)C6CC6)C[C@H]5/C=C\CCCCC[C@H](NC(=O)OC(C)(C)C)C(=O)N4C3)nc2c1 [Compound 18e] | 5.02 | 15.3 | 1.43 | 23.7 | 5.02 | (4) fold | 25.7 | 25.7 | (18) fold | 15.3 | (11) fold | 239 | 239 ± 20 | (56) fold | 4.27 | 4.27 | 1.43 | 23.7 | (17) fold | – |
| O=C(N[C@H]1CCCCC/C=C\[C@@H]2C[C@@]2(C(=O)NS(=O)(=O)C2CC2)NC(=O)[C@@H]2C[C@@H](Oc3nc4ccccc4nc3-c3cccs3)CN2C1=O)OC1CCCC1 [Compound 22f, Cyclopentyl ((2R,6S,13aS,14aR,16aS,Z)-14a-((cyclopropylsulfonyl)carbamoyl)-5,16-dioxo-2-((3-(thiophen-2-yl)quinoxalin-2-yl)oxy)-1,2,3,5,6,7,8,9,10,11,13a,14,14a,15,16,16a-hexadecahydrocyclopropa[e]pyrrolo[1,2-a][1,4]diazacyclopentadecin-6-yl)carbamate] | 19.2 | 42.2 | 0.4 | 70 | 19.2 | (48) fold | 183 | 183 | (458) fold | 42.2 | (106) fold | 900 | 900 ± 81 | (566) fold | 1.59 | 1.59 | 0.4 | 70 | (175) fold | – |
